Measurements: patent US20080139564A1, “SUBSTITUTED PHENYL PROPYL AMINES AS HISTAMINE H3 RECEPTOR AND SEROTONIN TRANSPORTER MODULATORS” (priority 2006, published 2008)
Where two headings read alike, the source gives them in different places.

Experiments:
[1] = target: T1, human H3 receptor (Homo sapiens, UniProt Q9Y5N1); experiment: Cyclic AMP accumulation (β-galactosidase reporter in SK-N-MC cells); format: cell-based
T1 construct: expressed in transfected cells
Experimental: Sublines of SK-N-MC cells were created that expressed a reporter construct and the human H3 receptor. The reporter gene (β-galactosidase) is under the control of multiple cyclic AMP responsive elements. In 96-well plates, histamine was added directly to the cell media followed 5 min later by an addition of forskolin (5 μM final concentration). When appropriate, antagonists were added 10 min prior to agonist addition. After a 6-h incubation at 37° C., the media was aspirated and the cells washed with 200 μL of phosphate-buffered saline followed by a second aspiration. Cells were lysed with 25 μL 0.1× assay buffer (10 mM Na-phosphate, pH 8, 0.2 mM MgSO4, 0.01 mM MnCl2) and incubated at rt for 10 min. Cells were then incubated for 10 min with 100 μL of 1× assay buffer containing 0.5% Triton and 40 mM β-mercaptoethanol. Color was developed using 25 μL of 1 mg/mL substrate solution (chlorophenolred β-D galactopyranoside; Roche Molecular Biochemicals, Indianapolis, Ind.). Color was quantitated on a microplate reader at absorbance 570 nm. The pA2 values were calculated by Schild regression analysis of the pEC50 values.

[2] = target: T2, human SERT (Homo sapiens, UniProt P31645); experiment: Human SERT binding (3H-citalopram displacement, HEK293 membranes); details: 3H-citalopram 3.1 nM, rt for 1 h
T2 construct: expressed in transfected cells; host or cells: HEK293
Summary of the method: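 HEK293 membranes expressing human SERT incubated with ^3H-citalopram (3.1 nM) for 1 h at rt in 50 mM Tris, 120 mM NaCl, 5 mM KCl, pH 7.4. Nonspecific binding defined with 10 μM fluoxetine. Ki derived from bound radioactivity using the ^3H-citalopram Kd.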

[3] = target: T3, Rat SERT (Rattus norvegicus, UniProt P31652); experiment: Rat brain SERT binding ([3H]-Citalopram displacement, rat brain membranes); details: 0.6 nM [3H]-Citalopram, 60 min at 25° C.
T3 construct: A rat brain without cerebellum (Zivic Laboratories, Inc.—Pittsburgh, Pa.) was homogenized; tissue Zivic Laboratories, Inc; host or cells: rat brain without cerebellum
Summary of the method: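 Membranes prepared from rat brain minus cerebellum in Tris pH 8/NaCl/KCl were incubated with 0.6 nM [3H]-citalopram and test compound for 60 min at 25° C. Bound ligand was separated by filtration. Nonspecific binding defined with 100 μM fluoxetine.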

[4] = target: T1, human H3 receptor; experiment: H3 receptor binding (N-[3H]-α-methylhistamine displacement, SK-N-MC cell membranes); details: 0.8 nM N-[3H]-α-methylhistamine, 60 min at 25° C.
Summary of the method: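 Membranes from SK-N-MC cells stably expressing cloned human H3 receptor, in 50 mM Tris/5 mM EDTA pH 7.4, incubated with 0.8 nM N-[³H]-α-methylhistamine ± compound for 60 min at 25° C., then filtered. Nonspecific binding defined with 10 μM histamine.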

T2 sequence (P31645 whole entry): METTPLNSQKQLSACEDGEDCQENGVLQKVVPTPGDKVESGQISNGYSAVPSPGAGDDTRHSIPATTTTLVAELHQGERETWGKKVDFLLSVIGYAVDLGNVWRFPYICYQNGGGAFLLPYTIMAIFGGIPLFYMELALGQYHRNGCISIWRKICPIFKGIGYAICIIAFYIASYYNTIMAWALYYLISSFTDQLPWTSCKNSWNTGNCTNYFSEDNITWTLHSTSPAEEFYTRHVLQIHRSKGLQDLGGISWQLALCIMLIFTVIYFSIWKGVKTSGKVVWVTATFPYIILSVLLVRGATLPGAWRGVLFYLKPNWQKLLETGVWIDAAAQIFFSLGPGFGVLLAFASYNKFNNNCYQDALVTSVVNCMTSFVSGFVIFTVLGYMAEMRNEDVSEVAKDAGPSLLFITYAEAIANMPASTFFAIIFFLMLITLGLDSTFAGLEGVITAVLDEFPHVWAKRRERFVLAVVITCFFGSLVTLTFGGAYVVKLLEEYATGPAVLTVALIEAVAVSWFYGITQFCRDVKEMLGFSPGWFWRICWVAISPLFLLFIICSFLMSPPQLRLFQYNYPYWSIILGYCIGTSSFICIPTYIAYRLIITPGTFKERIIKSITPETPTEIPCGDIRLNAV
T1 sequence (Q9Y5N1 whole entry): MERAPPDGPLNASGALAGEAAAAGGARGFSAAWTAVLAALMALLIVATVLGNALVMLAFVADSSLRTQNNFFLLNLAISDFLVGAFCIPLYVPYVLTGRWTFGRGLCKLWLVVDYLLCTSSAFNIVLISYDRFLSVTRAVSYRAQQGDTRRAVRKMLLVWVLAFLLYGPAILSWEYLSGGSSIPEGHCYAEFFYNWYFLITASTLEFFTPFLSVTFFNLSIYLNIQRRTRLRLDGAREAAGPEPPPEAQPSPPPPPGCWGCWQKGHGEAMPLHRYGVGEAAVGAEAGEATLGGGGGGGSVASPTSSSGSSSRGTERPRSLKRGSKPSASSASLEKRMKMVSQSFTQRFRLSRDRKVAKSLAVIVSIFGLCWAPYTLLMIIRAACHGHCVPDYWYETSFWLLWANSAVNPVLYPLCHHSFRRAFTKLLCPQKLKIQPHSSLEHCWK
T3 sequence (P31652 whole entry): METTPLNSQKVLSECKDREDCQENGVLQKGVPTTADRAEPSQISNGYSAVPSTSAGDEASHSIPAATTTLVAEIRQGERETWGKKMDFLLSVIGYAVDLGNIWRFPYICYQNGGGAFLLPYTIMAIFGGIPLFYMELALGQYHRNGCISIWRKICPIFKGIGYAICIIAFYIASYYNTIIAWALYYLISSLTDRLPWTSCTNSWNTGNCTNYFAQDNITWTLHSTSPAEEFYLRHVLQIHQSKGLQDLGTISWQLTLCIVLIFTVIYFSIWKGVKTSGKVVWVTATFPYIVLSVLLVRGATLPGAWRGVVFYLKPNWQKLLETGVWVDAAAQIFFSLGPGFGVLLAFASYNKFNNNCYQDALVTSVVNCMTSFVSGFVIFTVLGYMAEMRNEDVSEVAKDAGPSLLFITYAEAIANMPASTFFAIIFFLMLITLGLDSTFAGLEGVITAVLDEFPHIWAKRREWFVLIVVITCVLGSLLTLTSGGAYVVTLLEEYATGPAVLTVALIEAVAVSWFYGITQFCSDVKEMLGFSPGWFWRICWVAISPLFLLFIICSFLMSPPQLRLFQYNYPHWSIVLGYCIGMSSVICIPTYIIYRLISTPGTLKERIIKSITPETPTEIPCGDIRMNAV

| SMILES | Kb ([1]; read-out: pA2 (converted)) [nM] | Ki [2] [nM] | Ki [3] [nM] | Ki [4] [nM] | Kb [1] [nM] |
| --- | --- | --- | --- | --- | --- |
| CN(C)CCC(Oc1ccc(OCCCN2CCCCC2)cc1)c1ccc(C(F)(F)F)cc1 (stereo not drawn) [Example 42, Dimethyl-[3-[4-(3-piperidin-1-yl-propoxy)-phenoxy]-3-(4-trifluoromethyl-phenyl)-propyl]-amine] | 3.89 | 180 | 9 | 2 | – |
| CN(C)CCC(Oc1ccc(OCCCN2CCCCC2)cc1)c1ccc(Cl)cc1 (stereo not drawn) [Example 43, {3-(4-Chloro-phenyl)-3-[4-(3-piperidin-1-yl-propoxy)-phenoxy]-propyl}-dimethyl-amine] | 1.7 | 163 | 23 | 1 | – |
| CC(C)N1CCC(Oc2ccc(OC(CCN(C)C)c3ccccc3)cc2)CC1 (stereo not drawn) [Example 44, {3-[4-(1-Isopropyl-piperidin-4-yloxy)-phenoxy]-3-phenyl-propyl}-dimethyl-amine] | 0.0977 | 90 | 18 | 0.9 | – |
| CC(C)N1CCN(Cc2ccc(C(CCN(C)C)Oc3ccccc3)cc2)CC1 (stereo not drawn) [Example 56, {3-[4-(4-Isopropyl-piperazin-1-ylmethyl)-phenyl]-3-phenoxy-propyl}-dimethyl-amine] | 0.977 | 133 | 14 | 1 | – |
| CN(C)CCC(Oc1ccc(C#CCCN2CCCCC2)cc1)c1ccccc1 (stereo not drawn) [Example 57, Dimethyl-{3-phenyl-3-[4-(4-piperidin-1-yl-but-1-ynyl)-phenoxy]-propyl}-amine] | 2.19 | 172 | 22 | 2 | – |
| CN(C)CCC(Nc1ccccc1)c1ccc(OCCCN2CCCCC2)cc1 (stereo not drawn) [Example 66, N^3,N^3-Dimethyl-N^1-phenyl-1-[4-(3-piperidin-1-yl-propoxy)-phenyl]-propane-1,3-diamine] | 3.98 | 151 | 15 | 3 | – |
| CNCCC(Oc1ccc(C(F)(F)F)cc1)c1ccc(OCCCN2CCCCC2)cc1 (stereo not drawn) [Example 70, Methyl-[3-[4-(3-piperidin-1-yl-propoxy)-phenyl]-3-(4-trifluoromethyl-phenoxy)-propyl]-amine] | – | 2 | 3 | 1 | 3.98 |

Further lines, with some results ahead:

| Kb ([1]; read-out: pA2 (converted)) [nM] | Ki [2] [nM] | Ki [3] [nM] | Ki [4] [nM] | SMILES | Kb [1] [nM] |
| --- | --- | --- | --- | --- | --- |
| 11.5 | 6 | 6 | 5 | CC(C)N1CCN(Cc2ccc(C(CCN(C)C)Oc3ccc(Cl)c(Cl)c3)cc2)CC1 (stereo not drawn) [Example 47, {3-(3,4-Dichloro-phenoxy)-3-[4-(4-isopropyl-piperazin-1-ylmethyl)phenyl]-propyl}-dimethyl-amine] | – |
| 0.251 | 14 | 1 | 0.8 | CN(C)CCC(Cc1ccccc1)c1ccc(OCCCN2CCCCC2)cc1 (stereo not drawn) [Example 65, Dimethyl-{4-phenyl-3-[4-(3-piperidin-1-yl-propoxy)-phenyl]-butyl}-amine] | – |
| 0.631 | 53 | 4 | 0.6 | CN(C)CCC(Sc1ccccc1)c1ccc(OCCCN2CCCCC2)cc1 (stereo not drawn) [Example 67, Dimethyl-{3-phenylsulfanyl-3-[4-(3-piperidin-1-yl-propoxy)phenyl]-propyl}-amine] | – |
| 7.94 | 1 | 5 | 8 | NCCC(Oc1ccc(C(F)(F)F)cc1)c1ccc(OCCCN2CCCCC2)cc1 (stereo not drawn) [Example 69, 3-[4-(3-Piperidin-1-yl-propoxy)-phenyl]-3-(4-trifluoromethylphenoxy)-propylamine] | – |
| 10.5 | 0.8 | 3 | 2 | CNCCC(Oc1ccc(Cl)c(Cl)c1)c1ccc(OCCCN2CCCCC2)cc1 (stereo not drawn) [Example 71, {3-(3,4-Dichloro-phenoxy)-3-[4-(3-piperidin-1-yl-propoxy)-phenyl]-propyl}-methyl-amine] | – |
